Assay results published in patent publication US9611277B2 (Janssen Pharmaceutica NV, priority 2013, dated 2017).

What was measured:
rat orexin 1 receptor = rat orexin 1 receptor (Rattus norvegicus, UniProt P56718); experiment: Rat orexin 1 receptor radioligand binding; details: rat orexin 1 receptor; averages of 2-20 runs; read-out: rOX1 Ki
Procedure, shortened: (§1)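 Ki values derive from one-site competition IC50s corrected with the radioligand's predetermined Kd, triplicates per run, averaged over 2-20 runs. Cell homogenates (rat or human OX1R) compete against [^3H]-thiazolyl-oxadiazolyl-pyrrolidine methanone in PBS; 10 μM almorexant sets nonspecific binding; scintillation counting after washing.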

human orexin 1 receptor = human orexin 1 receptor (Homo sapiens, UniProt O43613); experiment: Human orexin 1 receptor radioligand binding; details: human orexin 1 receptor; averages of 2-20 runs; read-out: hOX1 Ki
Procedure, shortened: as §1

human orexin 2 receptor = human orexin 2 receptor (Homo sapiens (Human), UniProt O43614); experiment: Human orexin 2 receptor radioligand binding; details: human orexin 2 receptor; averages of 2-20 runs; read-out: hOX2 Ki
Sequence of human orexin 2 receptor (O43614 whole entry): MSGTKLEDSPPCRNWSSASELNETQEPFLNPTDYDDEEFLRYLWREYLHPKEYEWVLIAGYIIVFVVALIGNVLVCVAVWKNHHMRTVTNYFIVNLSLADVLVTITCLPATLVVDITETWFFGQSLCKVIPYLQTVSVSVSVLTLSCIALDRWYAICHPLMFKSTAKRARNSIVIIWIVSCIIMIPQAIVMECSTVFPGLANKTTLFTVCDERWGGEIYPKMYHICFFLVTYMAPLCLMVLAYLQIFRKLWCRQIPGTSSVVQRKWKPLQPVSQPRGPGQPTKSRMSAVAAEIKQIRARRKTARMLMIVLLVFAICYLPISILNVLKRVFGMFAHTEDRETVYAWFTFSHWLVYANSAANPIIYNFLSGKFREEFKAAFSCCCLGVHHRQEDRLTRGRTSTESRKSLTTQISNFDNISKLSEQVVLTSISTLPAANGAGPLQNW
Procedure, shortened: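 Ki derived from one-site competition IC50 using predetermined Kd of [3H]-EMPA, triplicate points, 2-20 runs averaged. Binding done on homogenized HEK293 cells stably expressing human orexin 2 receptor, DMSO ≤0.1%, with 10 μM almorexant defining nonspecific binding; filtered, washed, scintillation counted.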

Row | Ki (rat orexin 1 receptor) [nM] | Ki (human orexin 1 receptor) [nM] | Ki (human orexin 2 receptor) [nM] | Structure (SMILES)
1 | 32 | 13 | 1900 | O=C(c1ccc(F)cc1-c1ncccn1)N1C[C@H]2C[C@@H](Nc3ncc(Cl)cn3)[C@@H]1C2 [Example 237, ((1S,4S,6R)-6-((5-chloropyrimidin-2-yl)amino)-2-azabicyclo[2.2.1]heptan-2-yl)(4-fluoro-2-(pyrimidin-2-yl)phenyl)methanone]
2 | 23 | 41 | 726 | O=C(c1c(F)cccc1-c1ncccn1)N1C[C@H]2C[C@@H](Nc3ncc(Cl)cn3)[C@@H]1C2 [Example 239, ((1S,4S,6R)-6-((5-chloropyrimidin-2-yl)amino)-2-azabicyclo[2.2.1]heptan-2-yl)(2-fluoro-6-(pyrimidin-2-yl)phenyl)methanone]
3 | 17 | 12 | 831 | O=C(c1ccccc1-c1ncccn1)N1C[C@H]2C[C@@H](Nc3ncc(Cl)cn3)[C@@H]1C2 [Example 240, ((1S,4S,6R)-6-((5-chloropyrimidin-2-yl)amino)-2-azabicyclo[2.2.1]heptan-2-yl)(2-(pyrimidin-2-yl)phenyl)methanone]
4 | 89 | 113 | 2100 | O=C(c1ccccc1-n1nccn1)N1C[C@H]2C[C@@H](Nc3ccc(C(F)(F)F)nn3)[C@@H]1C2 [Example 242, (2-(2H-1,2,3-triazol-2-yl)phenyl)((1S,4S,6R)-6-((6-(trifluoromethyl)pyridazin-3-yl)amino)-2-azabicyclo[2.2.1]heptan-2-yl)methanone]
5 | 112 | 131 | 1800 | Cc1ccc(-n2nccn2)c(C(=O)N2C[C@H]3C[C@@H](Nc4ccc(C(F)(F)F)nn4)[C@@H]2C3)n1 [Example 243, (6-methyl-3-(2H-1,2,3-triazol-2-yl)pyridin-2-yl)((1S,4S,6R)-6-((6-(trifluoromethyl)pyridazin-3-yl)amino)-2-azabicyclo[2.2.1]heptan-2-yl)methanone]
6 | 114 | 143 | 1700 | Cc1ccc(-c2ncccn2)c(C(=O)N2C[C@H]3C[C@@H](Nc4ccc(C(F)(F)F)nn4)[C@@H]2C3)n1 [Example 244, (6-methyl-3-(pyrimidin-2-yl)pyridin-2-yl)((1S,4S,6R)-6-((6-(trifluoromethyl)pyridazin-3-yl)amino)-2-azabicyclo[2.2.1]heptan-2-yl)methanone]
7 | 65 | 53 | 4300 | O=C(c1cccc(F)c1-c1ncccn1)N1C[C@H]2C[C@@H](Nc3ccc(C(F)(F)F)nn3)[C@@H]1C2 [Example 245, (3-fluoro-2-(pyrimidin-2-yl)phenyl)((1S,4S,6R)-6-((6-(trifluoromethyl)pyridazin-3-yl)amino)-2-azabicyclo[2.2.1]heptan-2-yl)methanone]
8 | 194 | 155 | 843 | O=C(c1ccccc1-n1nccn1)N1C[C@H]2C[C@@H](Nc3ccc(C(F)(F)F)nc3)[C@@H]1C2 [Example 246, (2-(2H-1,2,3-triazol-2-yl)phenyl)((1S,4S,6R)-6-((6-(trifluoromethyl)pyridin-3-yl)amino)-2-azabicyclo[2.2.1]heptan-2-yl)methanone]
9 | 26 | 31 | 939 | O=C(c1cccc(F)c1-c1ncccn1)N1C[C@H]2C[C@@H](Nc3ccc(C(F)(F)F)nc3)[C@@H]1C2 [Example 247, (3-fluoro-2-(pyrimidin-2-yl)phenyl)((1S,4S,6R)-6-((6-(trifluoromethyl)pyridin-3-yl)amino)-2-azabicyclo[2.2.1]heptan-2-yl)methanone]
10 | 11 | 10 | 294 | O=C(c1cc(F)ccc1-c1ncccn1)N1C[C@@H]2CC[C@H]1[C@H](Oc1ccc(C(F)(F)F)cn1)C2 [Example 260, (5-fluoro-2-(pyrimidin-2-yl)phenyl)((1S,4R,6R)-6-((5-(trifluoromethyl)pyridin-2-yl)oxy)-2-azabicyclo[2.2.2]octan-2-yl)methanone]
11 | 21 | 9 | 400 | O=C(c1c(F)cccc1-c1ncccn1)N1C[C@@H]2CC[C@H]1[C@H](Oc1ccc(C(F)(F)F)cn1)C2 [Example 261, (2-fluoro-6-(pyrimidin-2-yl)phenyl)((1S,4R,6R)-6-((5-(trifluoromethyl)pyridin-2-yl)oxy)-2-azabicyclo[2.2.2]octan-2-yl)methanone]
12 | 11 | 9 | 1100 | O=C(c1cccc(F)c1-c1ncc(F)cn1)N1C[C@@H]2CC[C@H]1[C@H](Oc1ccc(C(F)(F)F)cn1)C2 [Example 263, (3-fluoro-2-(5-fluoropyrimidin-2-yl)phenyl)((1S,4R,6R)-6-((5-(trifluoromethyl)pyridin-2-yl)oxy)-2-azabicyclo[2.2.2]octan-2-yl)methanone]
13 | 10 | 16 | > 10000 | Cc1cnc(C(=O)N2C[C@@H]3CC[C@H]2[C@H](Oc2ccc(C(F)(F)F)cn2)C3)c(-c2ncccn2)c1 [Example 264, (5-methyl-3-(pyrimidin-2-yl)pyridin-2-yl)((1S,4R,6R)-6-((5-(trifluoromethyl)pyridin-2-yl)oxy)-2-azabicyclo[2.2.2]octan-2-yl)methanone]
14 | 14 | 19 | 306 | Cc1ccc(-c2ncccn2)c(C(=O)N2C[C@@H]3CC[C@H]2[C@H](Oc2ccc(C(F)(F)F)cn2)C3)n1 [Example 265, (6-methyl-3-(pyrimidin-2-yl)pyridin-2-yl)((1S,4R,6R)-6-((5-(trifluoromethyl)pyridin-2-yl)oxy)-2-azabicyclo[2.2.2]octan-2-yl)methanone]
15 | 11 | 11 | 654 | O=C(c1cccc(F)c1-c1ncccn1)N1C[C@@H]2CC[C@H]1[C@H](Oc1ncc(C(F)(F)F)cc1F)C2 [Example 266, (3-fluoro-2-(pyrimidin-2-yl)phenyl)((1S,4R,6R)-6-((3-fluoro-5-(trifluoromethyl)pyridin-2-yl)oxy)-2-azabicyclo[2.2.2]octan-2-yl)methanone]
16 | 26 | 19 | 1100 | Cc1ccc(O[C@@H]2C[C@H]3CC[C@@H]2N(C(=O)c2cccc(F)c2-c2ncccn2)C3)nc1 [Example 267, (3-fluoro-2-(pyrimidin-2-yl)phenyl)((1S,4R,6R)-6-((5-methylpyridin-2-yl)oxy)-2-azabicyclo[2.2.2]octan-2-yl)methanone]
17 | 5 | 4 | 200 | O=C(c1ccccc1-n1nccn1)N1C[C@@H]2CC[C@H]1[C@H](Oc1ccc(Br)cn1)C2 [Example 268, (2-(2H-1,2,3-triazol-2-yl)phenyl)((1S,4R,6R)-6-((5-bromopyridin-2-yl)oxy)-2-azabicyclo[2.2.2]octan-2-yl)methanone]
18 | 4 | 5 | 363 | O=C(c1cccc(F)c1-c1ncccn1)N1C[C@@H]2CC[C@H]1[C@H](Oc1ccc(Br)cn1)C2 [Example 269, ((1S,4R,6R)-6-((5-bromopyridin-2-yl)oxy)-2-azabicyclo[2.2.2]octan-2-yl)(3-fluoro-2-(pyrimidin-2-yl)phenyl)methanone]
19 | 4 | 3 | 200 | O=C(c1ccccc1-n1nccn1)N1C[C@@H]2CC[C@H]1[C@H](Oc1ccc(Cl)cn1)C2 [Example 270, (2-(2H-1,2,3-triazol-2-yl)phenyl)((1S,4R,6R)-6-((5-chloropyridin-2-yl)oxy)-2-azabicyclo[2.2.2]octan-2-yl)methanone]
20 | 7 | 8 | 452 | O=C(c1cccc(F)c1-c1ncccn1)N1C[C@@H]2CC[C@H]1[C@H](Oc1ccc(Cl)cn1)C2 [Example 271, ((1S,4R,6R)-6-((5-chloropyridin-2-yl)oxy)-2-azabicyclo[2.2.2]octan-2-yl)(3-fluoro-2-(pyrimidin-2-yl)phenyl)methanone]
21 | 23 | 11 | 1400 | O=C(c1ccccc1-c1ncc(F)cn1)N1C[C@@H]2CC[C@H]1[C@H](Oc1cnc(C(F)(F)F)cn1)C2 [Example 272, (2-(5-fluoropyrimidin-2-yl)phenyl)((1S,4R,6R)-6-((5-(trifluoromethyl)pyrazin-2-yl)oxy)-2-azabicyclo[2.2.2]octan-2-yl)methanone]
22 | 44 | 16 | 3800 | O=C(c1cccc(F)c1-c1ncc(F)cn1)N1C[C@@H]2CC[C@H]1[C@H](Oc1cnc(C(F)(F)F)cn1)C2 [Example 273, (3-fluoro-2-(5-fluoropyrimidin-2-yl)phenyl)((1S,4R,6R)-6-((5-(trifluoromethyl)pyrazin-2-yl)oxy)-2-azabicyclo[2.2.2]octan-2-yl)methanone]
23 | 17 | 15 | 998 | O=C(c1ccc(F)cc1-c1ncccn1)N1C[C@@H]2CC[C@H]1[C@H](Nc1cnc(C(F)(F)F)cn1)C2 [Example 277, (4-fluoro-2-(pyrimidin-2-yl)phenyl)((1S,4R,6R)-6-((5-(trifluoromethyl)pyrazin-2-yl)amino)-2-azabicyclo[2.2.2]octan-2-yl)methanone]
24 | 14 | 7 | 243 | O=C(c1cc(F)ccc1-c1ncccn1)N1C[C@@H]2CC[C@H]1[C@H](Nc1cnc(C(F)(F)F)cn1)C2 [Example 278, (5-fluoro-2-(pyrimidin-2-yl)phenyl)((1S,4R,6R)-6-((5-(trifluoromethyl)pyrazin-2-yl)amino)-2-azabicyclo[2.2.2]octan-2-yl)methanone]
